pEC50: −log10 of the molar value.
test system: Rat DRG; test: Rat dorsal root ganglion excitability response (EFS, Ca2+ transients); format: cell-based; details: Rat DRG excitability; read-out: Average response by the standard compound
Method: Dorsal root ganglions (DRGs) were dissected from adult rats. The tissue was processed, and cells were seeded into call culture plates (48 center wells of one quadrant in 384-well plates) and cultured for 2 days prior to Electrical field stimulation (EFS). To visualize the neuronal excitability response, intracellular Ca^+2 transients were monitored using the Ca^+2 indicator, Ca5. Ca5 was added to the cultures 1 h prior to EFS. Representative test compounds of the invention (i.e., test compounds) and reference compound, tetracaine, were added in concentration-response format encompassing six concentrations, performed in duplicate. The highest concentration tested was typically 30 μM with 1 in 3 dilutions generating the subsequent concentrations.
Effects on DRG excitability by the test compounds and standard were evaluated using four EFS protocols as disclosed in Table 2.
Experimental results were performed using two separate sets of plates using separate test compound and standard dilutions, to provide n=2. In the first set of experiments, compounds were added 24 h prior to EFS to increase the possibility to also detect more long-term compound effects. In the second set of experiments the compounds were added directly prior to EFS. Excitability response to EFS was analyzed as the average fluorescence ratio (peak/baseline) change per well. All plates were evaluated using high content imaging equipment post-EFS, imaging the Ca5 background staining to detect any possible compound-related toxic effects.
Average response by the standard compound, tetracaine, was 4.05 μM.

| SMILES | pEC50 |
| --- | --- |
| CCCCNc1ccc(C(=O)OCCN(C)C)cc1 [tetracaine, reference compound] | 5.39 |

same assay, conditions: Rattus norvegicus; Table 3; electrical field stimulation, Ca5 indicator; read-out: Scoring (EC50, Rat DRG excitability)

| SMILES | pEC50 |
| --- | --- |
| C[C@H]1CC[C@H]2[C@H](CN)[C@@H]([C@@]3(C)Cc4cnn(C(C)(C)C)c4C[C@@H]3CO)CC[C@]12C [Ia-40, ((5R,6S)-5-((1S,3aS,4S,5S,7aR)-4-(aminomethyl)-1,7a-dimethyloctahydro-1H-inden-5-yl)-1-(tert-butyl)-5-methyl-4,5,6,7-tetrahydro-1H-indazol-6-yl)methanol] | 5.22 to 5.70 |
| C[C@H]1CC[C@H]2[C@H](CN)[C@@H]([C@@]3(C)Cc4cnn(-c5ccccc5)c4C[C@@H]3CO)CC[C@]12C [Ia-35, ((5R,6S)-5-((1S,3aS,4S,5S,7aR)-4-(aminomethyl)-1,7a-dimethyloctahydro-1H-inden-5-yl)-5-methyl-1-phenyl-4,5,6,7-tetrahydro-1H-indazol-6-yl)methanol] | > 5.70 |
| C[C@H]1CC[C@H]2[C@H](CN)[C@@H]([C@@]3(C)Cc4cnn(CC(C)(C)C)c4C[C@@H]3CO)CC[C@]12C [Ia-38, ((5R,6S)-5-((1S,3aS,4S,5S,7aR)-4-(aminomethyl)-1,7a-dimethyloctahydro-1H-inden-5-yl)-5-methyl-1-neopentyl-4,5,6,7-tetrahydro-1H-indazol-6-yl)methanol] | > 5.70 |
| C[C@H]1CC[C@H]2[C@H](CN)[C@@H]([C@@]3(C)Cc4cnn(C5CCCCC5)c4C[C@@H]3CO)CC[C@]12C [Ia-37, ((5R,6S)-5-((1S,3aS,4S,5S,7aR)-4-(aminomethyl)-1,7a-dimethyloctahydro-1H-inden-5-yl)-1-cyclohexyl-5-methyl-4,5,6,7-tetrahydro-1H-indazol-6-yl)methanol] | > 5.70 |
| C=C1CC[C@H]2[C@H](CN)[C@@H]([C@@]3(C)Cc4cn(CC(C)(C)C)nc4C[C@@H]3CO)CC[C@]12C [Ia-23, ((5R,6S)-5-((3aS,4R,5S,7aS)-4-(aminomethyl)-7a-methyl-1-methyleneoctahydro-1H-inden-5-yl)-5-methyl-2-neopentyl-4,5,6,7-tetrahydro-2H-indazol-6-yl)methanol] | 5.22 to 5.70 |
| C[C@H]1CC[C@H]2[C@H](CN)[C@@H]([C@@]3(C)Cc4cnn(-c5ccccn5)c4C[C@@H]3CO)CC[C@]12C [Ia-42, ((5R,6S)-5-((1S,3aS,4S,5S,7aR)-4-(aminomethyl)-1,7a-dimethyloctahydro-1H-inden-5-yl)-5-methyl-1-(pyridin-2-yl)-4,5,6,7-tetrahydro-1H-indazol-6-yl)methanol] | > 5.70 |
| C[C@H]1CC[C@H]2[C@H](CN)[C@@H]([C@@]3(C)Cc4cn(-c5ccccn5)nc4C[C@@H]3CO)CC[C@]12C [Ia-43, ((5R,6S)-5-((1S,3aS,4S,5S,7aR)-4-(aminomethyl)-1,7a-dimethyloctahydro-1H-inden-5-yl)-5-methyl-2-(pyridin-2-yl)-4,5,6,7-tetrahydro-2H-indazol-6-yl)methanol] | > 5.70 |
